In ChEMBL document CHEMBL1145057, “Water soluble, core-modified porphyrins. 3. Synthesis, photophysical properties, and in vitro studies of photosensitization, uptake, and localization with carboxylic acid-substituted derivatives” (J Med Chem, 2003) one finds logP data, which are given here for six compounds.

The structures appear in SMILES notation.

The nature of the series: Partition coefficient (logP). The series is classed as physicochemical. As to conditions: octanol/water.
In general, logP refers to the decadic logarithm of the partition coefficient of the neutral form, usually between octanol and water. Low readings indicate a more hydrophilic compound, high ones a more lipophilic compound. Turning to `O=C(O)COc1ccc(-c2c3nc(c(-c4ccccc4)c4ccc(s4)c(-c4ccccc4)c4nc(c(-c5ccc(OCC(=O)O)cc5)c5ccc2s5)C=C4)C=C3)cc1`, the logP stood at 0.036.
Then `O=C(O)COc1ccc(-c2c3nc(c(-c4ccccc4)c4ccc(s4)c(-c4ccccc4)c4nc(c(-c5ccccc5)c5ccc2s5)C=C4)C=C3)cc1`, with > 3.5.
Then `O=S(=O)(O)c1ccc(-c2c3nc(c(-c4ccc(F)cc4)c4ccc(s4)c(-c4ccc(F)cc4)c4nc(c(-c5ccc(S(=O)(=O)O)cc5)c5ccc2s5)C=C4)C=C3)cc1`, with -1.9.
Turning to `O=C(O)COc1ccc(-c2c3nc(c(-c4ccc(OCC(=O)O)cc4)c4ccc(s4)c(-c4ccc(OCC(=O)O)cc4)c4nc(c(-c5ccccc5)c5ccc2s5)C=C4)C=C3)cc1`, the logP was -1.49.
The same measure for `O=C(O)COc1ccc(-c2c3nc(c(-c4ccccc4)c4ccc(s4)c(-c4ccccc4)c4nc(c(-c5ccc(OCC(=O)O)cc5)c5ccc2[se]5)C=C4)C=C3)cc1`: -0.67; for `O=C(O)COc1ccc(-c2c3nc(c(-c4ccc(OCC(=O)O)cc4)c4ccc(s4)c(-c4ccc(OCC(=O)O)cc4)c4nc(c(-c5ccc(OCC(=O)O)cc5)c5ccc2s5)C=C4)C=C3)cc1`: -0.95.
